{
  "source": "patent US8765730B2",
  "about": "(Hoffmann-La Roche Inc, priority 2010, dated 2014)",
  "note": "pEC50: −log10 of the molar value.",
  "data": [
    {"target": "T1, human GPBAR1 receptor (Homo sapiens, UniProt Q8TDU6)", "T1 construct": "expressed in transfected cells", "T1 sequence (Q8TDU6 1-330)": "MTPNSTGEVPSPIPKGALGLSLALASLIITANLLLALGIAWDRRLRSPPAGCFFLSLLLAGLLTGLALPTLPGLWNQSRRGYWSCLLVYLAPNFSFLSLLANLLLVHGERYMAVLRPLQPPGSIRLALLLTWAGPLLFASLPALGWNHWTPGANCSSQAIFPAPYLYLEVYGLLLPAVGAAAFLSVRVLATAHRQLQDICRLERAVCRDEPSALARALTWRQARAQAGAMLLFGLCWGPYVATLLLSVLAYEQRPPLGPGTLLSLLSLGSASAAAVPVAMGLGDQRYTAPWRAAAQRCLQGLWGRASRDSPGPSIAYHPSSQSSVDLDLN", "test": "functional cAMP assay in CHO-dhfr(minus) cells expressing human GPBAR1 receptors", "format": "cell-based", "details": "functional cAMP assay, 30 min at 30° C., read-out: human EC50", "summary_of_the_method": "(§1)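 Agonist cAMP read-out: stable GPBAR1 CHO-dhfr− clone, 30 min compound exposure at 30° C following 30 min IBMX (1 mM) preincubation in Krebs Ringer bicarbonate. Time-resolved energy-transfer detection gives EC50; parental CHO cells serve as counter-screen.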", "values": [
      {"smiles": "Cc1ccccc1[C@H](C/C(=N\\O)c1cc(Br)c(=O)n(C)c1)c1ccc(Br)cc1", "note": "[Example 252, 3-Bromo-5-{(R)-3-(4-bromo-phenyl)-1-[(E)-hydroxyimino]-3-o-tolyl-propyl}-1-methyl-1H-pyridin-2-one]", "pEC50": 8.00},
      {"smiles": "COC1CN(c2ccc([C@@H](C/C(=N\\O)c3ccnc(C)c3)c3ccccc3C)cc2)C1", "note": "[Example 270, (E,R)-3-[4-(3-Methoxy-azetidin-1-yl)-phenyl]-1-(2-methyl-pyridin-4-yl)-3-o-tolyl-propan-1-one oxime]", "pEC50": 8.30},
      {"smiles": "Cc1cc(/C(C[C@H](c2ccc(C(=O)NCCO)cc2)c2ccccc2C)=N/O)ccn1", "note": "[Example 273, N-(2-Hydroxy-ethyl)-4-[(R)-3-[(E)-hydroxyimino]-3-(2-methyl-pyridin-4-yl)-1-o-tolyl-propyl]-benzamide]", "pEC50": 7.51}
    ]},
    {"target": "T1, human GPBAR1 receptor", "test": "functional cAMP assay in CHO-dhfr(minus) cells expressing human GPBAR1 receptors", "format": "cell-based", "details": "human EC50, functional cAMP assay, 30 min at 30° C.", "summary_of_the_method": "as §1", "values": [
      {"smiles": "CC(=O)NCCNC(=O)c1ccc(C(C/C(=N\\O)c2ccc(=O)n(C)c2)c2ccccc2C)cc1", "note": "(stereo not shown) [Example 246, (E)-N-(2-Acetamidoethyl)-4-(3-(hydroxyimino)-3-(1-methyl-6-oxo-1,6-dihydropyridin-3-yl)-1-o-tolylpropyl)benzamide]", "pEC50": 5.66},
      {"smiles": "Cc1ccccc1C(C/C(=N\\O)c1ccc(=O)n(C)c1)c1ccc(C(=O)NC[C@H](C)O)cc1", "note": "(stereo partly drawn) [Example 247, 4-((E)-3-(Hydroxyimino)-3-(1-methyl-6-oxo-1,6-dihydropyridin-3-yl)-1-o-tolylpropyl)-N-((S)-2-hydroxypropyl)benzamide]", "pEC50": 6.66},
      {"smiles": "Cc1ccccc1C(C/C(=N\\O)c1ccc(=O)n(C)c1)c1ccc(C(=O)NC[C@@H](C)O)cc1", "note": "(stereo partly drawn) [Example 248, 4-((E)-3-(Hydroxyimino)-3-(1-methyl-6-oxo-1,6-dihydropyridin-3-yl)-1-o-tolylpropyl)-N-((R)-2-hydroxypropyl)benzamide]", "pEC50": 7.15},
      {"smiles": "Cn1cc(/C(CC(c2ccc(S(C)(=O)=O)cc2)c2ccccc2Cl)=N/O)ccc1=O", "note": "(stereo not shown) [Example 249, (E)-5-(3-(2-Chlorophenyl)-1-(hydroxyimino)-3-(4-(methylsulfonyl)phenyl)propyl)-1-methylpyridin-2(1H)-one]", "pEC50": 7.52},
      {"smiles": "Cn1cc(/C(CC(c2ccc(=O)n(C)c2)c2ccccc2Cl)=N/O)ccc1=O", "note": "(stereo not shown) [Example 250, (E)-5,5′-(1-(2-Chlorophenyl)-3-(hydroxyimino)propane-1,3-diyl)bis(1-methylpyridin-2(1H)-one)]", "pEC50": 5.87},
      {"smiles": "Cc1cc(Cl)ccc1C(C/C(=N\\O)c1ccc(=O)n(C)c1)c1ccc(-c2ccc(C#N)cc2)cc1", "note": "(stereo not shown) [Example 251, (E)-4′-(1-(4-Chloro-2-methylphenyl)-3-(hydroxyimino)-3-(1-methyl-6-oxo-1,6-dihydropyridin-3-yl)propyl)biphenyl-4-carbonitrile]", "pEC50": 6.32},
      {"smiles": "COC(=O)CNC(=O)c1ccc(-c2ccc(C(C/C(=N\\O)c3ccc(=O)n(C)c3)c3ccc(F)cc3C)cc2)cc1", "note": "(stereo not shown) [Example 257, ({4′-[1-(4-Fluoro-2-methyl-phenyl)-3-[(E)-hydroxyimino]-3-(1-methyl-6-oxo-1,6-dihydro-pyridin-3-yl)-propyl]-biphenyl-4-carbonyl}-amino)-acetic acid methyl ester]", "pEC50": 7.70},
      {"smiles": "Cc1cc(F)ccc1C(C/C(=N\\O)c1ccc(=O)n(C)c1)c1ccc(-c2ccc(C(=O)NCC(=O)O)cc2)cc1", "note": "(stereo not shown) [Example 258, ({4′-[1-(4-Fluoro-2-methyl-phenyl)-3-[(E)-hydroxyimino]-3-(1-methyl-6-oxo-1,6-dihydro-pyridin-3-yl)-propyl]-biphenyl-4-carbonyl}-amino)-acetic acid]", "pEC50": 8.00},
      {"smiles": "Cc1cc(F)ccc1C(C/C(=N\\O)c1ccc(=O)n(C)c1)c1ccc(-c2ccc(N)cc2)cc1", "note": "(stereo not shown) [Example 259, 5-{3-(4′-Amino-biphenyl-4-yl)-3-(4-fluoro-2-methyl-phenyl)-1-[(E)-hydroxyimino]-propyl}-1-methyl-1H-pyridin-2-one]", "pEC50": 7.30},
      {"smiles": "Cc1cc(F)ccc1C(C/C(=N\\O)c1ccc(=O)n(C)c1)c1ccc(-c2ccc(-c3nnn[nH]3)cc2)cc1", "note": "(stereo not shown) [Example 260, 5-{3-(4-Fluoro-2-methyl-phenyl)-1-[(E)-hydroxyimino]-3-[4′-(1H-tetrazol-5-yl)-biphenyl-4-yl]-propyl}-1-methyl-1H-pyridin-2-one]", "pEC50": 7.40},
      {"smiles": "Cc1ccccc1[C@H](C/C(Cc1ccncc1)=N\\O)c1ccc(Br)cc1", "note": "[Example 261, (E,R)-4-(4-bromophenyl)-1-(pyridin-4-yl)-4-o-tolylbutan-2-one oxime]", "pEC50": 7.55},
      {"smiles": "Cc1ccccc1[C@H](C/C(Cc1ccncc1)=N/O)c1ccc(Br)cc1", "note": "[Example 262, (Z,R)-4-(4-bromophenyl)-1-(pyridin-4-yl)-4-o-tolylbutan-2-one oxime]", "pEC50": 6.56},
      {"smiles": "Cc1ccccc1[C@H](C/C(Cc1ccccn1)=N\\O)c1ccc(Br)cc1", "note": "[Example 263, (E,R)-4-(4-bromophenyl)-1-(pyridin-2-yl)-4-o-tolylbutan-2-one oxime]", "pEC50": 5.49},
      {"smiles": "Cc1cc(/C(C[C@H](c2ccc(N3CCOCC3)cc2)c2ccccc2C)=N/O)ccn1", "note": "[Example 264, (E,R)-1-(2-Methyl-pyridin-4-yl)-3-(4-morpholin-4-yl-phenyl)-3-o-tolyl-propan-1-one oxime]", "pEC50": 8.70},
      {"smiles": "CCOC(=O)C1CCN(c2ccc([C@@H](C/C(=N\\O)c3ccnc(C)c3)c3ccccc3C)cc2)CC1", "note": "[Example 265, 1-{4-[(R)-3-[(E)-Hydroxyimino]-3-(2-methyl-pyridin-4-yl)-1-o-tolyl-propyl]-phenyl}-piperidine-4-carboxylic acid ethyl ester]", "pEC50": 7.92},
      {"smiles": "COCCN(C)c1ccc([C@@H](C/C(=N\\O)c2ccnc(C)c2)c2ccccc2C)cc1", "note": "[Example 267, (E,R)-3-{4-[(2-Methoxy-ethyl)-methyl-amino]-phenyl}-1-(2-methyl-pyridin-4-yl)-3-o-tolyl-propan-1-one oxime]", "pEC50": 7.74},
      {"smiles": "Cc1cc(/C(C[C@H](c2ccc(N(C)CCO)cc2)c2ccccc2C)=N/O)ccn1", "note": "[Example 268, (E,R)-3-{4-[(2-Hydroxy-ethyl)-methyl-amino]-phenyl}-1-(2-methyl-pyridin-4-yl)-3-o-tolyl-propan-1-one oxime]", "pEC50": 7.89},
      {"smiles": "Cc1cc(/C(C[C@H](c2ccc(N3CCC(CO)CC3)cc2)c2ccccc2C)=N/O)ccn1", "note": "[Example 269, (E,R)-3-[4-(4-Hydroxymethyl-piperidin-1-yl)-phenyl]-1-(2-methyl-pyridin-4-yl)-3-o-tolyl-propan-1-one oxime]", "pEC50": 8.70},
      {"smiles": "Cc1cc(/C(C[C@H](c2ccc(N3CCS(=O)(=O)CC3)cc2)c2ccccc2C)=N/O)ccn1", "note": "[Example 271, (E,R)-3-[4-(1,1-Dioxo-1λ6-thiomorpholin-4-yl)-phenyl]-1-(2-methyl-pyridin-4-yl)-3-o-tolyl-propan-1-one oxime]", "pEC50": 7.96},
      {"smiles": "Cc1cc(/C(C[C@H](c2ccc(C(=O)N(C)CCO)cc2)c2ccccc2C)=N/O)ccn1", "note": "[Example 274, N-(2-Hydroxy-ethyl)-4-[(R)-3-[(E)-hydroxyimino]-3-(2-methyl-pyridin-4-yl)-1-o-tolyl-propyl]-N-methyl-benzamide]", "pEC50": 7.10},
      {"smiles": "Cc1cc(/C(C[C@H](c2ccc(C(=O)NC[C@H](C)O)cc2)c2ccccc2C)=N/O)ccn1", "note": "[Example 275, 4-[(R)-3-[(E)-Hydroxyimino]-3-(2-methyl-pyridin-4-yl)-1-o-tolyl-propyl]-N—((S)-2-hydroxy-propyl)-benzamide]", "pEC50": 7.59},
      {"smiles": "Cc1cc(/C(C[C@H](c2ccc(C(=O)N[C@H]3CC[C@H](C(=O)O)CC3)cc2)c2ccccc2C)=N/O)ccn1", "note": "[Example 276, Trans-4-{4-[(R)-3-[(E)-Hydroxyimino]-3-(2-methyl-pyridin-4-yl)-1-o-tolyl-propyl]-benzoylamino}-cyclohexanecarboxylic acid]", "pEC50": 7.23},
      {"smiles": "Cc1cc(/C(C[C@H](c2ccc(C(=O)N(C)C)cc2)c2ccccc2C)=N/O)ccn1", "note": "[Example 277, 4-[(R)-3-[(E)-Hydroxyimino]-3-(2-methyl-pyridin-4-yl)-1-o-tolyl-propyl]-N,N-dimethyl-benzamide]", "pEC50": 7.68},
      {"smiles": "CNC(=O)c1ccc([C@@H](C/C(=N\\O)c2ccnc(C)c2)c2ccccc2C)cc1", "note": "[Example 278, 4-[(R)-3-[(E)-Hydroxyimino]-3-(2-methyl-pyridin-4-yl)-1-o-tolyl-propyl]-N-methyl-benzamide]", "pEC50": 7.82},
      {"smiles": "Cc1cc(/C(C[C@H](c2ccc(N3CC(C(=O)O)C3)cc2)c2ccccc2C)=N/O)ccn1", "note": "[Example 279, 1-{4-[(R)-3-[(E)-Hydroxyimino]-3-(2-methyl-pyridin-4-yl)-1-o-tolyl-propyl]-phenyl}-azetidine-3-carboxylic acid]", "pEC50": 7.96},
      {"smiles": "Cc1cc(/C(C[C@H](c2ccc(NCC(CCl)C(=O)O)cc2)c2ccccc2C)=N/O)ccn1", "note": "(stereo partly drawn) [Example 280, 2-Chloromethyl-3-{4-[(R)-3-[(E)-hydroxyimino]-3-(2-methyl-pyridin-4-yl)-1-o-tolyl-propyl]-phenylamino}-propionic acid]", "pEC50": 7.72},
      {"smiles": "Cc1cc(/C(C[C@@H](c2ccc(C(=O)O)cc2)c2ccc(Cl)cc2C)=N/O)ccn1", "note": "[Example 282, 4-[(S)-1-(4-Chloro-2-methyl-phenyl)-3-[(E)-hydroxyimino]-3-(2-methyl-pyridin-4-yl)-propyl]-benzoic acid]", "pEC50": 6.19},
      {"smiles": "Cc1cc(/C(C[C@@H](c2ccc(C(=O)N(C)C)cc2)c2ccc(Cl)cc2C)=N/O)ccn1", "note": "[Example 283, 4-[(S)-1-(4-Chloro-2-methyl-phenyl)-3-[(E)-hydroxyimino]-3-(2-methyl-pyridin-4-yl)-propyl]-N,N-dimethyl-benzamide]", "pEC50": 7.29}
    ]}
  ]
}
